Values of other authors, collected in US20120302639A1, “OMEGA 3 FORMULATIONS FOR TREATMENT OF RISK FACTORS FOR CARDIOVASCULAR DISEASE AND PROTECTION AGAINST SUDDEN DEATH” (PIVOTAL THERAPEUTICS INC., priority 2011, published 2012).

Settings: ALOGPS, as reported by Tetko et al. 2005

theoretical Log P | SMILES
6.83 | CC/C=C\C/C=C\C/C=C\C/C=C\C/C=C\C/C=C\CCC(=O)O [DHA, Docosahexaenoic acid]
6.53 | CC/C=C\C/C=C\C/C=C\C/C=C\C/C=C\CCCC(=O)O [EPA, Eicosapentaenoic acid]
